Reference: patent US7544675B2, “Chemical compounds with dual activity, processes for their preparation and pharmaceutical compositions” (UCB, S.A., priority 2002, dated 2009)

Legend:
[1] = biological target: T1, human m3 muscarinic receptor (Homo sapiens, UniProt P20309); experiment: Affinity for human muscarinic receptors ([3H]-NMS binding, CHO cell membranes); conditions: qualitative statement
T1 construct: expressed in transfected cells; host or cells: CHO (Chinese Hamster Ovarian) cells, crude membrane fraction
Procedure: Chinese Hamster Ovarian cells (CHO) expressing the human recombinant m1, m2, m3, m4 and m5 receptors were cultured in Ham's F12 media supplemented with 100 IU/ml of penicillin, 100 μg/ml of streptomycin, 400 μg/ml of geneticin and 5% of fetal bovine serum. Cell cultures were maintained in a humidified incubator at 37° C. and 5% CO2.
Confluent CHO cells expressing human m1, m2, m3, m4 and m5 muscarinic receptors were harvested and resuspended in phosphate buffered saline without calcium and magnesium. The cell suspension was centrifuged at 1500×g for 3 min (4° C.). The cell pellet was homogenized in a 15 mM Tris-HCl (pH 7.5) buffer containing 2 mM MgCl2, 0.3 mM EDTA and 1 mM EGTA. The crude membrane fraction was collected by two consecutive centrifugation steps at 40,000×g for 25 min (4° C.). The final pellet was resuspended, at a protein concentration ranging from 2 to 6 mg/ml, in a 7.5 mM Tris-HCl (pH 7.5) buffer containing 12.5 mM MgCl2, 0.3 mM EDTA, 1 mM EGTA and 250 mM sucrose and stored in liquid nitrogen.
Binding assays were performed according to procedure described in: Buckley N. J., Bonner T. I., Buckley C. M., Brann M. R., Mol. Pharmacol. (1989), 35, 469-476, but with slight modifications.
Briefly, 25 to 50 μg of membrane proteins were incubated at room temperature in 1 ml of a 50 mM Tris-HCl (pH 7.4) buffer containing 2 mM of MgCl2, 0.1 nM of [^3H]-NMS (N-methylscopolamine, 85 Ci/mmol, from Apbiotech, UK) and increasing concentrations of test compound dissolved in DMSO (1% final concentration). Non specific binding was measured in the presence of 1 μM atropine. After 60 (m2) or 120 (m3) min. incubation, assays were stopped by rapid vacuum filtration of the samples through glass fiber filters (Filtermat A, Wallac, Belgium) presoaked in 0.3% polyethyleneimine for at least 2 h. Samples were further rinsed with 8 ml of ice-cold 50 mM Tris-HCl (pH 7.4) buffer. Radioactivity trapped onto the filter was counted in a Betaplate counter (Wallac). Competition binding curves were analyzed by non-linear regression with XLfit software (UDBS, UK).

PDE IV = PDE IV enzymatic activity (SPA phosphodiesterase assay, cytosolic fraction from U937 cells); format: biochemical; conditions: qualitative statement
Procedure: Cytosolic fraction from U937 cells pre-stimulated for 4 h at 37° C. with a mixture of rolipram 30 μM and salbutamol 1 μM (Torphy T. J., Zhou H. L., Cieslinski L. B., J. Pharmacol. Exp. Ther. (1992), 263 (3), 1195-1205).
Assays were performed in 100 μL of 50 mM Tris HCl buffer (pH 7.4) containing 5 mM MgCl2, 2 mM EGTA, 20 nM of [^3H]-cAMP (40-60 Ci/mmol), the cytosolic fraction of 50,000 U937 cells and the appropriate concentration of test compound (usually 10 μM) dissolved in DMSO (final assay concentration not exceeding 1%). After 30 min incubation at room temperature, 0.5 mg of SPA yttrium silicate beads are added to each sample. Radioactivity bound to the beads (5′-AMP) is determined by liquid scintillation. Non PDE IV activity and/or non specific binding of the labeled substrate to the SPA beads is defined as the residual radioactivity remaining in the presence of rolipram 32 μM (non PDE IV activity represents about 40% of total activity). PDE IV activity is determined by subtracting the non PDE TV activity from the total activity.

T1 sequence (P20309 whole entry): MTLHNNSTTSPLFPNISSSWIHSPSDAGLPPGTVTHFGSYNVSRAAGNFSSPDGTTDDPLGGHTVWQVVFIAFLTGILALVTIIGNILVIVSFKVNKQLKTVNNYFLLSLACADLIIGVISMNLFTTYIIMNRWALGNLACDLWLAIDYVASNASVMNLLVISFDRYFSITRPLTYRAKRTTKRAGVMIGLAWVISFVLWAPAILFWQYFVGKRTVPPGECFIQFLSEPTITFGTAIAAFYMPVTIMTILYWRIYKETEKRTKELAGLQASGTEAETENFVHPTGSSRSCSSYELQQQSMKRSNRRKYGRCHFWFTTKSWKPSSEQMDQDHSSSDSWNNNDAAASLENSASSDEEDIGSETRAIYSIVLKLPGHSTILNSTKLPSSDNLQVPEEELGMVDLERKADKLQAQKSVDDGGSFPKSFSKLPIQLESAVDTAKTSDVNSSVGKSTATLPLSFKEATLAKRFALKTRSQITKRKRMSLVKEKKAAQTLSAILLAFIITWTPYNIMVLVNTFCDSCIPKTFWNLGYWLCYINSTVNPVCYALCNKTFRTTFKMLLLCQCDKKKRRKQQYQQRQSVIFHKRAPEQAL

SMILES | Dual high affinities: m3 receptor part [1] | Dual high affinities: PDE IV part (PDE IV)
Cc1c(NC2CCC(C)CC2)nc(C2CC2)nc1NC1CC1 (centres unmarked) [Compound 145, N^4,2-dicyclopropyl-5-methyl-N^6-(4-methylcyclohexyl)-4,6-pyrimidinediamine] | high affinities | high affinities
Cc1c(NC2CC2)nc(C2CCCC2)nc1N1CCCCCC1 [Compound 154, 6-(1-azepanyl)-2-cyclopentyl-N-cyclopropyl-5-methyl-4-pyrimidinamine] | high affinities | high affinities
C1CCCN(c2nc(C3CC3)nc3c2CCCCN3)CC1 [Compound 156, 4-azepan-1-yl-2-cyclopropyl-6,7,8,9-tetrahydro-pyrimido[4,5-b]azepine] | high affinities | high affinities
Cc1c(NC2CC2)nc(C2CC2)nc1N1CCCCC1 [Compound 175, N,2-dicyclopropyl-5-methyl-6-(1-piperidinyl)-4-pyrimidinamine] | high affinities | high affinities
Cc1c(NC2CC2)nc(C2CC2)nc1N1CC2CCC(CC2)C1 [Compound 176, 6-(3-azabicyclo[3.2.2]non-3-yl)-N,2-dicyclopropyl-5-methyl-4-pyrimidinamine] | high affinities | high affinities
Cc1c(NC2CC2)nc(C2CC2)nc1N1CCCC1 [Compound 180, N,2-dicyclopropyl-5-methyl-6-(1-pyrrolidinyl)-4-pyrimidinamine] | high affinities | high affinities
Cc1c(N2CCCCCC2)nc(C2CC2)nc1N1CC(C)C1 [Compound 185, 1-[2-cyclopropyl-5-methyl-6-(3-methylazetidin-1-yl)pyrimidin-4-yl]azepane] | high affinities | high affinities

More lines, main results first:

Dual high affinities: m3 receptor part [1] | SMILES | Dual high affinities: PDE IV part (PDE IV)
high affinities | C1CCCN(c2nc(C3CC3)nc3c2CCCN3)CC1 [Compound 155, 4-azepan-1-yl-2-cyclopropyl-5,6,7,8-tetrahydro-pyrido[2,3-d]pyrimidine] | high affinities
high affinities | Cc1c(N2CCCCCC2)nc(C2CC2)nc1N1CCC1 [Compound 184, 1-(6-azetidin-1-yl-2-cyclopropyl-5-methylpyrimidin-4-yl)azepane] | high affinities
high affinities | Cc1c(N2CCCCCC2)nc(C2CC2)nc1N1CC(O)C1 [Compound 189, 1-(6-azepan-1-yl-2-cyclopropyl-5-methylpyrimidin-4-yl)azetidin-3-ol] | high affinities
high affinities | CC1CN(c2cc(N3CCCCCC3)nc(C3CC3)n2)C1 [Compound 191, 1-[2-cyclopropyl-6-(3-methylazetidin-1-yl)pyrimidin-4-yl]azepane] | high affinities
high affinities | c1c(N2CCCCCC2)nc(C2CC2)nc1N1CCC1 [Compound 192, 1-(6-azetidin-1-yl-2-cyclopropylpyrimidin-4-yl)azepane] | high affinities
high affinities | Cc1c(N2CCCCCC2)nc(C2CC2)nc1N1CC(F)C1 [Compound 194, 1-[2-cyclopropyl-6-(3-fluoroazetidin-1-yl)-5-methylpyrimidin-4-yl]azepane] | high affinities
